From US20240315986A1, “PHARMACEUTICAL COMPOSITION FOR TREATMENT OF MULTIPLE SYSTEM ATROPHY” (THE UNIVERSITY OF TOKYO, priority 2021, published 2024)
Where two headings read alike, the source gives them in different places.

Assays:
[1] = cited from earlier work
[2] = Phase 1 clinical trial: plasma concentration of drug in repeated oral administration for 14 days; assay type: in vivo, human; conditions: for Maximum plasma concentration of the MSA-01: 6 hours after repeated oral administration for 14 days (318 hour)
Protocol: (Measurement of Plasma Concentration of Drug in Repeated Oral Administration for 14 Days)
The MSA-01 was subjected to the oral administration to healthy subjects at doses of 900 mg, 1,200 mg, and 1,500 mg repeatedly for 14 days. […] Maximum plasma concentrations of the MSA-01 detected were 10.24, 9.38, and 15.22 μg/mL in 900 mg, 1,200 mg, and 1,500 mg groups, respectively, in measurement after 6 hours from the repeated oral administration for 14 days (a value at 318 hour in FIG. 1). Published baselines of the plasma concentration of the ubiquinol are 0.87 and […] (% Reduced CoQ10: 98.9 and 85%) (Langsjoen, et al. Comparison study of plasma coenzyme Q10 levels in healthy subjects supplemented with ubiquinol versus ubiquinone. Clin Pharmacol Drug Dev. 2014; 3(1):13-17, Onur et al. Determination of the coenzyme Q10 status in a large Caucasian study population. Biofactors 2015; 41(4):211-21), and it is estimated that MSA-01 in the plasma increased about 20-fold from the baselines in the 1500 mg group in the test.

[3] = tested on: multiple system atrophy patients; experiment: Phase 2 clinical trial of MSA-01 in multiple system atrophy patients; assay type: in vivo, human
Protocol: For a group of 21 patients with COQ2 mutation and a group of 108 patients without COQ2 mutation, 61 patients were administered with the MSA-01 and 68 patients were administered with the placebo for each group. Among 129 patients in total in the patient groups, 99 patients had the MSA-C and 30 patients had the MSA-P. The 129 patients who were confirmed to be eligible during 4-week observation period were randomly assigned to be administered with the MSA-01 or the placebo once per day after breakfast (doses of the MSA-01 or the placebo ascend every 2 weeks to 300, 600, 900, 1,200, and 1,500 mg/day, FIG. 2), and evaluation items according to main evaluation items were measured at Weeks 12, 24, 36, and 48.
Changes (LS means) of UMSARS part 2 scores at Weeks 12, 24, 36, and 48 from the baseline (unified multiple-system atrophy rating scale part 2; Wenning G K, Tison F, Seppi K, et al. Development and validation of the Unified Multiple System Atrophy Rating Scale (UMSARS). Mov Disord [Internet] 2004; 19(12):1391-402) were evaluated. […] Results are shown in FIG. 3A (at Weeks 12, 24, 36, and 48) and FIG. 4 (at Week 48).
Changes (LS mean) of a UMSARS part 1 score (unified multiple-system atrophy rating scale part 1; Wenning G K, Tison F, Seppi K, et al. Development and validation of the Unified Multiple System Atrophy Rating Scale (UMSARS). Mov Disord [Internet] 2004; 19(12):1391-402), the Barthel index (Barthel index: Mahoney F I, Barthel D W. Functional evaluation: The Barthel index. Md State Med J [Internet] 1965; 14:61-5. Available from:http://www.ncbi.nlm.nih.gov/pubmed/14258950) (FIG. 3B), a SARA score (Schmitz-Huebsch T, du Montcel S T, Baliko L, Berciano J, Boesch S, Depondt C, Giunti P, Globas C, Infante J, Kang J S, Kremer B, Mariotti C, Melegh B, Pandolfo M, Rakowicz M, Ribai P, Rola R, Schoels L, Szymanski S, van de Warrenburg B P, Duerr A, Klockgether T, Fancellu R. Scale for the assessment and rating of ataxia:development of a new clinical scale. Neurology. 2006 Jun. 13; 66(11):1717-20. doi: 10.1212/01.wnl.0000219042.60538.92), and a 10-meter walking time (second) at Week 48 from baselines was evaluated (FIG. 4).

familial MSA patient = conditions: cited from earlier work
[4] = oral administration to a human; cited from earlier work
[5] = intravenous administration to a rat; cited from earlier work
[6] = first cited value (Langsjoen et al. 2014)
[7] = second cited value (Onur et al. 2015)
[8] = Week 48, compared to the placebo group

Row | Structure (SMILES) | % Reduced CoQ10 [1, 6] [%] | Published baseline of the plasma concentration of the ubiquinol [1, 6] [µg/mL] | % Reduced CoQ10 [1, 7] [%] | Published baseline of the plasma concentration of the ubiquinol [1, 7] [µg/mL] | Maximum plasma concentration of the MSA-01 ([2]; 900 mg group) [µg/mL] | Maximum plasma concentration of the MSA-01 ([2]; 1,200 mg group) [µg/mL] | increase of MSA-01 in the plasma from the baselines ([2]; 1500 mg group, versus published baselines) | Maximum plasma concentration of the MSA-01 ([2]; 1,500 mg group) [µg/mL] | plasma concentration of the MSA-01 until 24 hours after the administration ([2]; healthy subjects, oral 900, 1,200 and 1,500 mg, quantification limit printed 1 g/mL) | time of repeated administration to reach steady state of plasma concentration ([2]; healthy subjects, repeated oral administration 900-1,500 mg) | Change (LS mean) of 10-meter walking time from baseline [3, 8] | Change (LS mean) of SARA score from baseline [3, 8] | Change (LS mean) of the Barthel index from baseline [3, 8] | difference of LS mean change of UMSARS part 2 score, MSA-01 group versus placebo group ([3]; Week 48, 95% confidence interval −3.24 to −0.24, P=0.023) | Change (LS mean) of UMSARS part 2 score from the baseline ([3]; Week 48, MSA-01 ascending to 1,500 mg/day oral once per day, placebo 7.14) | clinical evaluation scale (familial MSA patient; 600 mg 2 weeks, 840 mg 2 weeks, 1,200 mg 2 weeks, once per day from a gastrostomy tube) | brain oxygen consumption rate (familial MSA patient; one familial MSA patient, ubiquinol above conventional dose) | ubiquinol (reduced) present in plasma after ubiquinone administration [4] [%] | ubiquinol (reduced) present in plasma after ubiquinone administration [5] [%]
1 | COC1=C(OC)C(O)C(C/C=C(\C)CC/C=C(\C)CC/C=C(\C)CC/C=C(\C)CC/C=C(\C)CC/C=C(\C)CC/C=C(\C)CC/C=C(\C)CC/C=C(\C)CCC=C(C)C)=C(C)C1O (stereo not shown) [MSA-01, 2-[(2E,6E,10E,14E,18E,22E,26E,30E,34E)-3,7,11,15,19,23,27,31,35,39-decamethyltetraconta-2,6,10,14,18,22,26,30,34,38-decaenyl]-5,6-dimethoxy-3-methylcyclohexa-2,5-diene-1,4-diol] | 98.9 | 0.87 | 85 | 0.66 | 10.24 | 9.38 | about 20 fold | 15.22 | extremely low | about 7 days | effects were shown | effects were shown | effects were shown | −1.74 | 5.40 | no statistically significant changes | improved brain oxygen consumption rate | – | –
2 | COC1=C(OC)C(=O)C(C/C=C(\C)CC/C=C(\C)CC/C=C(\C)CC/C=C(\C)CC/C=C(\C)CC/C=C(\C)CC/C=C(\C)CC/C=C(\C)CC/C=C(\C)CCC=C(C)C)=C(C)C1=O [ubiquinone] | – | – | – | – | – | – | – | – | – | – | – | – | – | – | – | – | – | ≥ 95 | ≥ 95
